# Entries after “also recorded” stand apart in the source; their conditions may differ.
# Legend:
# [1] = system: aortic contractile response to phenylephrine; assay: Aortic contractile response in vitro to phenylephrine after 21 days treatment; format: in vivo, spontaneously hypertensive rats; conditions: 10 mg/kg p.o. daily for 21 days
# Text: The aortic contractile response in vitro to phenylephrine is impaired in spontaneously hypertensive rats (SHRs) relative to normotensive Wistar-Kyoto rats.
# [2] = system: tissue norepinephrine and dopamine levels; assay: Tissue catecholamines in beagle dogs, 10, 30, 60 mg/kg/day for 4.5 days; format: in vivo
# Protocol: This study was performed to determine the dopamine and norepinephrine concentrations in kidney medulla and kidney cortex from dogs dosed with nepicastat. Adult male beagle dogs were randomly assigned to four groups of 8 dogs per group and dosed by oral administration with nepicastat. Nepicastat was delivered in doses of 5, 15 and 30 mg/kg placed in single capsules. Vehicle was an empty capsule. Each dog received 2 doses daily, morning and afternoon (8-10 hours apart) for four days. On the fifth day, each dog received a single dose in the morning and the dogs were euthanized six hours after the last dose. Samples of kidney medulla and kidney cortex were rapidly harvested, weighed, placed in cold 0.4 M perchloric acid, frozen in liquid nitrogen and stored at −70° C.
# To quantitate concentrations of norepinephrine (NE) and dopamine (D), each tissue was homogenized by brief sonication in 0.4 M perchloric acid. After sonication, the homogenates were centrifuged at 13,000 rpm in a microfuge for 30 minutes at 4° C. An aliquot of each supernatant was removed and spiked with 3,4-dihydroxybenzylamine (DHBA) as internal standard. The extract from each sample was subjected to HPLC separation using electrochemical detection. The method has a quantitation limit of 2.0 ng/mL and a linear range of 2.0 ng/mL to 400 ng/mL for each analyte.
# Thirty-two male beagle dogs, weighing 10-12 kg, were randomly assigned to one of the following 4 treatment groups (n=8 per group): nepicastat at 0 mg/kg/day (placebo), 10 mg/kg/day (5 mg/kg b.i.d.), 30 mg/kg (15 mg/kg b.i.d.), or 60 mg/kg/day (30 mg/kg b.i.d.). Dog numbers 1-16 were assigned as dose group A and dog numbers 17-32 as dose group B. The terminal surgery for tissue harvest was performed over 2 days with 16 animals studied per day. Two or 3 days before the first compound administration each dog was weighed and skin regions overlying both cephalic, saphenous and jugular veins were shaved. Dosing consisted of oral administration of one capsule with the second given 8-10 hr later. Dogs were dosed as scheduled on days 1-3. On day 4, prior to the AM dose, 3 ml of blood were obtained from a jugular vein for determination of baseline plasma compound levels. The dog was then administered the AM dose, and at 1, 2, 4 and 8 hr following the dose additional 3 ml blood samples were collected for determination of plasma compound levels. Blood samples were put into tubes containing heparin, centrifuged at 4° C. and stored at −20° C. until analysis. The PM dose was then administered as scheduled. The AM dose was administered as scheduled on the days of surgery. Approximately 6 hr after the AM dose, a final 3 ml blood sample was taken from the jugular vein for determination of plasma compound levels. The dog was then anesthetized with pentobarbital Na (˜40 mg/kg), given i.v. in a cephalic or saphenous vein, and delivered to the necropsy room where an additional dose of pentobarbital Na was given (˜80 mg/kg, iv). The left ventricle, renal artery, kidney, renal medulla, renal cortex and cerebral cortex were then rapidly harvested, weighed, put into 2 ml iced 0.4M perchloric acid, frozen in liquid nitrogen and stored at −70° C. until analysis for catecholamines by HPLC using electrochemical detection. All tissue samples were divided into 2 portions, the second of which were immediately frozen in liquid nitrogen and stored at −70° C. for determination of tissue compound levels. A third transmural sample taken from the left ventricle was immediately frozen in liquid nitrogen and stored at −70° C. for use in receptor binding studies.
# Ventricles were homogenized in 50 mM Tris-HCl, 5 mM Na2EDTA buffer (pH 7.4 at 4° C.) using a Polytron P-10 tissue disrupter (setting 10, 2×15 second bursts). Homogenates were centrifuged at 500×g for 10 minutes and the supernatants stored on ice. The pellets were washed by resuspension and centrifugation at 500×g and the supernatants combined. […]
# [3] = system: mesenteric artery catecholamines and sympathetically-evoked responses; assay: Anesthetized beagle dogs, 30 mg/kg intraduodenally; format: in vivo
# [4] = system: anesthetized SHRs; assay: Acute i.v. treatment of anesthetized SHRs, blood pressure and renal function; format: in vivo, spontaneously hypertensive rats; conditions: 3.0 mg/kg i.v.
# Text: The calculated renal vascular resistance was decreased following dosing. An attempt was made using the DA-1 antagonist SCH-23390 to assess if the renal vasodilator effects of nepicastat were mediated by DA-1 receptors.
# [5] = Tolerability in patients with chronic heart failure; format: in vivo, human
# Protocol: The dose at which the frequency of significant adverse events increased was 160 mg.
# [6] = system: SHRs; conditions: rat, in vivo
# [7] = system: SHRs; assay: 30-day radio-telemetry study in SHRs; conditions: for blood pressure: hydrochloride
# [8] = renal medulla, 60 mg/kg/day, marginal (0.05<p<0.10)
compound,measurement,setting,value
"Cl.NCc1c[nH]c(=S)n1[C@H]1CCc2c(F)cc(F)cc2C1 [nepicastat, (S)-5-Aminomethyl-1-(5,7-difluoro-1,2,3,4-tetrahydronaphth-2-yl)-2,3-dihydro-2-thioxo-1H-imidazole hydrochloride]",phenylephrine responsiveness of aorta,[1],restored phenylephrine responsiveness
same,increase in dopamine,"[2]; cerebral cortex, 10 mg/kg/day",632%
same,increase in dopamine/norepinephrine ratio,"[2]; cerebral cortex, 10 mg/kg/day",531%
same,decrease in norepinephrine,"[2]; cerebral cortex, 30 mg/kg/day",63%
same,increase in dopamine/norepinephrine ratio,"[2]; cerebral cortex, 30 mg/kg/day",86%
same,increase in dopamine,"[2]; cerebral cortex, 30 mg/kg/day, marginal (0.05<p<0.10)",174%
same,increase in dopamine,"[2]; cerebral cortex, 60 mg/kg/day",411%
same,increase in dopamine/norepinephrine ratio,"[2]; cerebral cortex, 60 mg/kg/day",612%
same,norepinephrine levels vs placebo,"[2]; cerebral cortex, 10 and 60 mg/kg/day",not significantly (p>0.01) affected
same,dose at which the plateau in DBH inhibition response begins,"[2]; heart, renal artery and kidney",10 mg/kg/day
same,decrease in norepinephrine,"[2]; left ventricle, 10 mg/kg/day",85%
same,increase in dopamine/norepinephrine ratio,"[2]; left ventricle, 10 mg/kg/day",852%
same,decrease in norepinephrine,"[2]; left ventricle, 30 mg/kg/day",58%
same,increase in dopamine/norepinephrine ratio,"[2]; left ventricle, 30 mg/kg/day",279%
same,decrease in norepinephrine,"[2]; left ventricle, 60 mg/kg/day",79%
same,increase in dopamine/norepinephrine ratio,"[2]; left ventricle, 60 mg/kg/day",607%
same,dopamine levels vs placebo,"[2]; left ventricle, 10, 30 and 60 mg/kg/day",No significant changes
same,decrease in norepinephrine,"[2]; renal artery, 10 mg/kg/day",86%
same,increase in dopamine,"[2]; renal artery, 10 mg/kg/day",180%
same,increase in dopamine/norepinephrine ratio,"[2]; renal artery, 10 mg/kg/day",1711%
same,decrease in norepinephrine,"[2]; renal artery, 30 mg/kg/day",81%
same,increase in dopamine,"[2]; renal artery, 30 mg/kg/day",273%
same,increase in dopamine/norepinephrine ratio,"[2]; renal artery, 30 mg/kg/day",1767%
same,decrease in norepinephrine,"[2]; renal artery, 60 mg/kg/day",85%
same,increase in dopamine,"[2]; renal artery, 60 mg/kg/day",268%
same,increase in dopamine/norepinephrine ratio,"[2]; renal artery, 60 mg/kg/day",1944%
same,decrease in norepinephrine,"[2]; renal cortex, 10 mg/kg/day",86%
same,increase in dopamine,"[2]; renal cortex, 10 mg/kg/day",156%
same,increase in dopamine/norepinephrine ratio,"[2]; renal cortex, 10 mg/kg/day",1653%
same,decrease in norepinephrine,"[2]; renal cortex, 30 mg/kg/day",66%
same,increase in dopamine,"[2]; renal cortex, 30 mg/kg/day",502%
same,increase in dopamine/norepinephrine ratio,"[2]; renal cortex, 30 mg/kg/day",1440%
same,decrease in norepinephrine,"[2]; renal cortex, 60 mg/kg/day",85%
same,increase in dopamine,"[2]; renal cortex, 60 mg/kg/day",208%
same,increase in dopamine/norepinephrine ratio,"[2]; renal cortex, 60 mg/kg/day",1693%
same,decrease in norepinephrine,"[2]; renal medulla, 10 mg/kg/day",72%
same,increase in dopamine/norepinephrine ratio,"[2]; renal medulla, 10 mg/kg/day",555%
same,increase in dopamine,"[2]; renal medulla, 10 mg/kg/day, marginal (0.05<p<0.10)",150%
same,increase in dopamine,"[2]; renal medulla, 30 mg/kg/day",522%
same,increase in dopamine/norepinephrine ratio,"[2]; renal medulla, 30 mg/kg/day",636%
same,increase in dopamine/norepinephrine ratio,"[2]; renal medulla, 60 mg/kg/day",677%
same,decrease in norepinephrine,[2]; [8],69%
same,increase in dopamine,[2]; [8],156%
same,responses to renal nerve stimulation and carotid artery occlusion,"[3]; 30 mg/kg intraduodenally, up to 5 hours",did not significantly inhibit
same,mesenteric artery catecholamines,[3]; 5 hours after 30 mg/kg intraduodenally,significant decrease in norepinephrine levels and an increase in the dopamine/norepinephrine ratio
same,calculated renal vascular resistance,[4],decreased
same,"renal blood flow, urine production, sodium and potassium excretion",[4],did not lower renal blood flow or alter urine production or urinary excretion of sodium or potassium
same,mean arterial pressure,[4]; over 3 hours,decreased mean arterial pressure
same,patients with symptomatic orthostatic hypotension,[5]; 160 mg,6 of the 8 patients
same,patients who developed a rash,[5]; 160 mg for 8 days or longer,Four of 8 patients
same,tolerability,"[5]; daily doses of 40, 80, 120 mg for 10 days",generally well tolerated
same,dose at which the frequency of significant adverse events increased,"[5]; human, in vivo",160 mg
same,motor activity (MA),[6],unaffected
same,peak decrease in mean blood pressure,"[7]; 30 mg/kg/d, day 3",−20 mmHg
same,peak antihypertensive response on day 1,"[7]; 100 mg/kg, 21 hr after dosing",−29 mmHg
same,blood pressure,[7]; 3 and 10 mg/kg/d for 30 days,no significant effects; also recorded: did not significantly affect blood pressure
same,persistence of blood pressure effect after a single dose,[7]; 30 and 100 mg/kg/d,24 h
same,blood pressure,[7]; 30 and 100 mg/kg/d for 30 days,significantly lowered blood pressure; also recorded: significantly reduced blood pressure
same,antihypertensive effect of mono-administration,[7]; enalapril 1 mg/kg or nepicastat 30 mg/kg (Series III),only a small antihypertensive effect
same,relation of deaths to treatment,[7]; four deaths in four series,appeared unrelated to the treatment of nepicastat
same,cardiac hypertrophy / left ventricular mass,[7]; nepicastat 3-100 mg/kg,did not affect the cardiac hypertrophy

# — patent publication US10561638B2, “Methods for treating dependence” (Biotie Therapies, Inc., priority 2007, dated 2020)
